From PMC3759421, “Blocking Plasmodium falciparum Development via Dual Inhibition of Hemoglobin Degradation and the Ubiquitin Proteasome System by MG132” (PLoS ONE, 2013)
Peptide text beside a SMILES is read from it. * marks the point of attachment. Cbz = O=C(OCc1ccccc1)*

Experiments:
falcipain-3 (FP3) [1] = target: T1, falcipain-3 (FP3) (Plasmodium falciparum, UniProt Q8IIL0); test: recombinant enzyme inhibition, Z-LR-AMC hydrolysis progress curves (association rate constant); type: biochemical; details: read-out: FP3
T1 construct: carboxy-terminus region of the prodomain (35 amino acid residues) and the entire mature protease domain
From the text: recombinant enzyme inhibition, Z-LR-AMC hydrolysis progress curves (association rate constant) on falcipain-3 (FP3) | MG132 and E64 inhibited hydrolysis of Z-LR-AMC by both enzymes (Figure 4B), confirming that MG132 is a falcipain inhibitor

falcipain-2 (FP2) [2] = target: T2, falcipain-2 (FP2) (Plasmodium falciparum, UniProt Q8I6U4); test: as above; type: biochemical; details: read-out: FP2
T2 construct: gene FP2A; carboxy-terminus region of the prodomain (36 amino acid residues) and the entire mature protease domain

falcipain-2 (FP2) [3] = target: T2, falcipain-2 (FP2); test: biochemical; details: read-out: FP2
Protocol: recombinant enzyme inhibition, Z-LR-AMC hydrolysis progress curves (association rate constant); active site titration on falcipain-2 (FP2) | Concentrations of active FP2 and FP3 were determined by active site titration using E64

falcipain-3 (FP3) [4] = target: T1, falcipain-3 (FP3); test: recombinant enzyme inhibition, Z-LR-AMC hydrolysis progress curves (association rate constant); active site titration; type: biochemical; details: read-out: FP3
From the text: recombinant enzyme inhibition, Z-LR-AMC hydrolysis progress curves (association rate constant); active site titration on falcipain-3 (FP3) | MG132 and E64 inhibited hydrolysis of Z-LR-AMC by both enzymes (Figure 4B)

T2 sequence (Q8I6U4 208-484): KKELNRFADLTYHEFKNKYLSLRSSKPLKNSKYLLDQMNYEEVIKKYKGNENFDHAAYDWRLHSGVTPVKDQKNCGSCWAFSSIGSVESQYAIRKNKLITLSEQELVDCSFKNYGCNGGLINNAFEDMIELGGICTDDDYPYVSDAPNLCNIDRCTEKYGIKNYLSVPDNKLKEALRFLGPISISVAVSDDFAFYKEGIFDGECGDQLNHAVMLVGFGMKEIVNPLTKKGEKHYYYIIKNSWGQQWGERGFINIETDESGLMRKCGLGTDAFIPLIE
T1 sequence (Q8IIL0 208-492): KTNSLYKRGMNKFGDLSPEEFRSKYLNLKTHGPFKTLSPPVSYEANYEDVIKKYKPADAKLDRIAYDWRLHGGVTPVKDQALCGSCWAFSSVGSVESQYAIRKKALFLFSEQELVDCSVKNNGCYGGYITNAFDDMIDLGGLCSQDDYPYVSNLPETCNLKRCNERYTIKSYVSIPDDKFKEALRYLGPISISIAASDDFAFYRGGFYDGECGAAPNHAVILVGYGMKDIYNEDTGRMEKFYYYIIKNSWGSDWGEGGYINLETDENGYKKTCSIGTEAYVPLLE

SMILES	kon (falcipain-3 (FP3) [1]) [M⁻¹ s⁻¹]	kon (falcipain-2 (FP2) [2]) [M⁻¹ s⁻¹]	kon (falcipain-2 (FP2) [3]) [M⁻¹ s⁻¹]	kon (falcipain-3 (FP3) [4]) [M⁻¹ s⁻¹]
CC(C)C[C@@H](C=O)NC(=O)[C@H](CC(C)C)NC(=O)[C@H](CC(C)C)NC(=O)OCc1ccccc1 [MG132] (Cbz-Leu-Leu-Leu-aldehyde)	412000	189000		
CC(C)C[C@H](NC(=O)[C@H]1O[C@@H]1C(=O)O)C(=O)NCCCCN=C(N)N [E64, L-trans-epoxysuccinyl-leucyl-amido(4-guanidino)butane]			10300	4090
